Test results: US12263248B2, “Compounds and compositions for intracellular delivery of therapeutic agents” (ModernaTX, Inc., priority 2018, dated 2025)
Marks after values point to notes of the source that are not given here.

Key:
[1] = Particle size and polydispersity index of nanoparticle compositions (Zetasizer Nano ZS); assay type: physicochemical; conditions: for PDI (Polydispersity index): lipid nanoparticle, ±SD within one assay run (Table 37)
Method in brief: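 Measured in 1×PBS by Zetasizer Nano ZS.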

luciferase mRNA = assay: Luciferase expression after subcutaneous administration to mice; assay type: in vivo, female CD-1 mice; conditions: for Novel lipid/MC3 expression ratio, s.c. Luc 0.5 mpk (AUC): relative to MC3; for Novel lipid/MC3 expression ratio, s.c. Luc 0.5 mpk (AUC) / Lipid/MC3 AUC ratio / AUC (luciferase expression): 0.5 mpk; for Lipid/MC3 AUC ratio: luciferase; for AUC (luciferase expression): whole body BLI; for Novel lipid/MC3 ratio, s.c. Luc 6 hr.: relative to MC3, Table 3G
Method in brief: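 Female CD-1 mice given luciferase mRNA in lipid nanoparticle formulations subcutaneously at 0.5 mpk. Expression read by whole-body bioluminescence imaging at 3, 6 and 24 h, with ex vivo liver, spleen and injection-site luminescence at 24 h.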

hEPO mRNA = assay: hEPO expression after intramuscular administration to mice; assay type: in vivo; conditions: for Fold increase in hEPO concentration relative to MC3: mice, 0.01 mpk, 6 hr time point; for Novel lipid/MC3 ratio, 6 hr. timepoint, i.m. hEPO: relative to MC3, Table 3G
Method: The expression of hEPO and cytokine induction in mice intravenously administered a nanoparticle composition at a dose of 0.5 mpk were measured at 3, 6, and 24 hours. […] The expression of hEPO in mice intramuscularly administered a nanoparticle composition from Table 1B at a dose of 0.01 mpk were measured at 3, 6, and 24 hours.
Blood collection and analysis for hEPO. Blood was collected from mice or rats via the tail vein and hEPO concentrations were determined using a hEPO ELISA assay.

luciferase (Luc) mRNA = assay: Luc expression in liver, lung, spleen and femur 6 hours after intravenous administration; assay type: in vivo; conditions: mice, intravenous, 0.5 mpk
Method in brief: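 LNP-formulated mRNA given IV to mice (n=3) at 0.5 mpk; at 6 h, bioluminescence imaged ex vivo 15 min after IP D-luciferin (15 mg/mL, 200 μL), organs imaged within 25 min. Values are total flux by region of interest.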

[2] = Chemical stability of lipids in ethanol (lipid purity); assay type: physicochemical
Method: Ester linkages were previously reported to trigger metabolism by esterases in vivo. (See Fukami, T. et al. Drug Metab. Pharmacokinet. 2012, 27, 466-477, the content of which is incorporated by reference herein in its entirety). […] (See Maier M. A., Mol. Ther. 2013, 21, 1570-1578, the content of which is incorporated herein in its entirety) First, the chemical stability of the lipids was evaluated by measuring ethanol stability at room temperature and 37° C. (Table 39). […] LNPs formed with compound 138 were larger, with a surface pKa>7. […] Removal of one ester function (compound 136) afforded LNPs with improved physiochemical characteristics and lower LNP surface pKa.

IL-6, IP-10 = assay: Cytokine induction in mice upon intravenous administration; assay type: in vivo; parameters: Cytokine induction IL-6 / Cytokine induction IP-10: unit not given here; conditions: intravenous, 0.5 mpk, 6 hours
Method in brief: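 IL-6 and IP-10 concentrations determined 6 hours after a single intravenous 0.5 mpk dose of lipid nanoparticle formulation in mice, with MC3 and PBS as comparators.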

[3] = Lipid clearance: lipid level in mouse liver tissue (LC-MS/MS); assay type: in vivo; conditions: for % dose remaining Mouse liver tissue, 24 h: CD-1 mouse liver 24 h after 0.5 mg/kg bolus dose mRNA, n = 5 ± S.D.; for % Dose Remaining in Liver 6 h: Table 3D
Method: Quantification of Lipid by LC-MS/MS: Liver samples were homogenized following addition of 19 eq. (w/v) of water (DF=20). Protein was precipitated and analyzed against calibration standards prepared in matching blank. Chromatographic separation and quantification was accomplished with a LC-MS/MS System. Samples were injected and separated via HPLC A triple-quadrupole MS/MS system operated in positive ion mode was used for signal detection.

[4] = Table 1A, lipid:DSPC:cholesterol:PEG-DMG 50:10:38.5:1.5 mol %
[5] = Table 1B, formulated with hEPO mRNA
[6] = Table 1C, compositions for subcutaneous administration
[7] = Table 1D, for subcutaneous administration, # formulated with hEPO mRNA
[8] = Table 1E, compositions for subcutaneous administration

| Compound | PDI ([1]; Table 1A) | Size (nm) [1, 4] | PDI [1, 5] | Size (nm) [1, 5] | PDI [1, 6] | Size (nm) [1, 6] | Novel lipid/MC3 expression ratio, s.c. Luc 0.5 mpk (AUC) (luciferase mRNA) | Lipid/MC3 AUC ratio (luciferase mRNA) | AUC (luciferase expression) (luciferase mRNA) | Novel lipid/MC3 ratio, s.c. Luc 6 hr. (luciferase mRNA) | Fold increase in hEPO concentration relative to MC3 (hEPO mRNA) | Novel lipid/MC3 ratio, 6 hr. timepoint, i.m. hEPO (hEPO mRNA) | Total Flux Liver (luciferase (Luc) mRNA) | Total Flux Lung (luciferase (Luc) mRNA) | Total Flux Spleen (luciferase (Luc) mRNA) | PDI (Polydispersity index) [1] | Cytokine induction IL-6 (IL-6, IP-10) | Cytokine induction IP-10 (IL-6, IP-10) | % dose remaining Mouse liver tissue, 24 h [3] | Total Flux Femur (luciferase (Luc) mRNA) | further results |
| --- | --- | --- | --- | --- | --- | --- | --- | --- | --- | --- | --- | --- | --- | --- | --- | --- | --- | --- | --- | --- | --- |
| CCCCCCCCCOC(=O)CCCCCCCN(CCCCCCCC(=O)OC(CCCCCCCC)CCCCCCCC)CCCNC(=O)NC [Compound 112, Heptadecan-9-yl 8-((3-(3-methylureido)propyl)(8-(nonyloxy)-8-oxooctyl)amino)octanoate] | 0.22 | 83.7 nm | 0.21 | 60.6 nm | 0.22 | 83.7 nm | (AUC: 1.19) | 1.19 | 2.0339E+10 (p/s) * h | 1.33 | 1.6 | 1.6 | 1.48E+08 | 1.83E+06 | 2.75E+07 | – | – | – | – | – | – |
| CCCCCCCCC(C)OC(=O)CCCCCN(CCO)CCCCCCCC(=O)OC(CCCCCCCC)CCCCCCCC (stereo not drawn) [Compound 122, Heptadecan-9-yl 8-((6-(decan-2-yloxy)-6-oxohexyl)(2-hydroxyethyl)amino)octanoate] | 0.09 | 69.3 nm | 0.12 | 70.2 nm | 0.16 | 80.2 nm | (AUC: 3.42) | 3.42 | 5.8576E+10 (p/s) * h | 4.12 | 10.7 | 10.7 | 2.63E+09 | 2.77E+07 | 1.56E+07 | – | – | – | – | – | Novel lipid/MC3 expression ratio, 6 hr. time point, i.m. hEPO (hEPO mRNA; relative to MC3 formulation): 10.7 |
| CCCCC/C=C\C/C=C\CCCCCCCCN(CCO)CCCCCCCC(=O)OCCCCCCCCC [Compound 136, Nonyl 8-((2-hydroxyethyl)((9Z,12Z)-octadeca-9,12-dien-1-yl)amino)octanoate] | 0.5 | 140.4 nm | – | – | – | – | – | – | – | – | – | – | 1.34E+08 | 8.91E+05 | 2.77E+07 | 0.11 ± 0.05 | 28.69 | 887.91 | 0% | 6.60E+05 | Lipid Purity ([2]; t = 0): 91.81%; Lipid Purity ([2]; t = 96 h, 25° C.): 93.17%; Lipid Purity ([2]; t = 96 h, 37° C.): 93.86% |
| CCCCCCCCCOC(=O)CCCCCCCN(CCO)CCCCCCCC(=O)OCCCCCCCCC [Compound 138, Dinonyl 8,8′-((2-hydroxyethyl)azanediyl)dioctanoate] | <0.5 | 179.4 nm | – | – | – | – | – | – | – | – | – | – | 3.66E+06 | 9.47E+04 | 4.04E+06 | 0.14 ± 0.05 | 23.38 | 172.56 | 0% | 1.58E+05 | Lipid Purity ([2]; t = 0): 97.59%; Lipid Purity ([2]; t = 96 h, 25° C.): 98.64%; Lipid Purity ([2]; t = 96 h, 37° C.): 97.82%; original dose remaining in liver tissue 24 hours post dose ([3]; mice, intravenous): no lipid detected |
| CCCCC/C=C\C/C=C\CCCCCCCCC(CCCCCCCC/C=C\C/C=C\CCCCC)OC(=O)CCCN(C)C [MC3, DLin-MC3-DMA, reference compound] | 0.11 | 79.7 nm | 0.12 | 57.7 nm | 0.09 | 56.9 nm | – | 1 | 1.7127E+10 (p/s) * h | – | 1 | – | 2.57E+09 | 1.27E+07 | 2.85E+07 | 0.11 ± 0.04 | 124.42 | 504.90 | 71 ± 27% | 2.56E+06 | PDI [1, 7]: 0.15; Size (nm) [1, 7]: 69.1 nm; PDI [1, 8]: 0.10; Size (nm) [1, 8]: 62.4 nm; PDI ([1]; lipid:DSPC:Chol:PEG-DMG (50:10:38.5:1.5), hEPO mRNA): 0.114; PDI ([1]; nanoparticle composition with hEPO mRNA (Table 30)): 0.220; % Dose Remaining in Liver 6 h ([3]; second column (head also says 6 h), intravenous): 54%; % Dose Remaining in Liver 6 h ([3]; intravenous): 80%; Mouse liver tissue level (ng/g) 6 h ([3]; Table 3E, intravenous, 6 h): 85400 ng/g; Mouse liver tissue level (ng/g) 24 h ([3]; Table 3E, intravenous, 24 h): 67433 ng/g; % Remaining dose at 6 h ([3]; Table 3E, mouse liver, 6 h): >98%; % Remaining dose at 24 h ([3]; Table 3E, mouse liver, 24 h): 79.7% |
